# Source: PubChem BioAssay (NCI)
# Several values for one entry are separate records, joined by “and”; a condition that tells them apart may be missing. Identical values can stand only once.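 How tested: cells in 96-well plates exposed to compound for 48 hours at five concentrations. GI50: concentration for 50% inhibition of growth. TGI denotes the concentration required for complete inhibition of growth.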
# Columns and labels:
# Test in all cases: NCI tumour cell line growth inhibition, 48 h
# [1] = test system: IGROV1 ovarian
# [2] = test system: SK-OV-3 ovarian
# [3] = test system: K-562 leukemia
# [4] = test system: SF-539 CNS
# [5] = test system: SF-295 CNS
# [6] = test system: SK-MEL-2 melanoma
# [7] = test system: HCT-15 colon
# [8] = test system: SK-MEL-5 melanoma
# [9] = test system: HT29 colon
# [10] = test system: OVCAR-3 ovarian
Structure (SMILES),TGI [1] [µM],TGI [2],TGI [3] [µM],TGI [4] [µM],TGI [5] [µM],TGI [6] [µM],TGI [7] [µM],TGI [8] [µM],TGI [9] [µM],GI50 [1],GI50 [2] [µM],GI50 [3] [µM],GI50 [4] [µM],GI50 [6] [µM],GI50 [7] [µM],GI50 [8] [µM],GI50 [10] [µM],TGI [10] [µM],GI50 [9] [µM],GI50 [5] [µM]
CC(=O)Oc1ccccc1C(=O)C1c2cccc(O)c2C(=O)c2c(O)cccc21,2.85,1.68 µM,> 100,1.94,2.65,2.9,9.56,2.4,6.59,–,–,–,–,–,–,–,–,–,–,–
Cn1cc(-c2ccc(CNc3cc(-c4cnc5cc(OCCCN6CCCC6)ccn45)ncn3)cc2)cn1,4.27,43.3 µM,> 100,2.46,–,30.4,12,2.85,2.72,2.05 µM,23,2.62,1.17,15.5,2.81,1.51,1.9,4.13,1.33,–
S=c1ssc(Sc2ccccn2)c1Cl,–,47.7 µM,14.5,32.1,34.5,> 100,18.1,15.3,> 100,–,23.7,3.63,16,34.6,5.26,3.74,13.2,25.9,3.43,16.5
N#Cc1ccccc1NC(=O)c1ccccc1,> 100,–,> 100,> 100,> 100,> 100,> 100,> 100,> 100,–,–,–,–,–,–,–,–,> 100,–,–
CN(C)c1ccc(C(N)=O)cn1,> 100,–,> 100,> 100,> 100,> 100,> 100,> 100,> 100,–,–,–,–,–,–,–,–,> 100,–,–
O=[N+]([O-])c1nccn1CC1OC(n2ccnc2[N+](=O)[O-])C(O)C(O)C1O (stereo not drawn),–,–,> 100,–,–,> 100,–,> 100,> 100,–,–,–,–,–,–,–,–,–,–,–
Cn1cc(-c2ccc3c(c2)CCN3C(=O)Cc2cccc(C(F)(F)F)c2)c2c(N)ncnc21,30.5,8.14 µM,20.6,11.8,25.3,28.6,16.1,–,16.3,3.47 µM,1.26,2.22,1.95,4.62,1.77,–,7.1,21.9,3.61,8.08
Fc1ccc(Nc2nccc(-c3c(-c4ccc(C(F)(F)F)cc4)nn4ncccc34)n2)cc1F,> 25,> 25 µM,> 25,> 25,> 25,–,> 25,> 25,> 25,> 25 µM,> 25,> 25,> 25,–,> 25,> 25,> 25,> 25,> 25,> 18.9
CCc1c2c(nc3cccc(N)c13)-c1cc3c(c(=O)n1C2)COC(=O)[C@]3(O)CC,20.8,4.13 µM and 13 µM,> 100,0.00491,–,–,> 100,–,0.655,0.137 µM and 0.0298 µM,0.00719,0.00244,< 0.001,–,–,0.00329,0.237,–,–,0.00441
C[C@H](CSC(=O)c1ccccc1)C(=O)N1c2ccccc2C[C@H]1C(=O)O,> 100,> 100 µM,> 100,> 100,> 100,–,> 100,> 100,> 100,–,–,–,–,–,–,–,–,> 100,–,–
CCOc1ccc(NC(=O)CC2SC(N)=NC2=O)cc1 (stereo not drawn),> 100,–,–,–,> 100,> 100,–,> 100,> 100,–,–,–,–,–,–,–,–,> 100,–,–
N/N=C(\Cc1ccccc1)NN=C(N)N,> 100,> 100 µM,> 100,> 100,> 100,> 100,> 100,> 100,> 100,–,–,–,–,–,–,–,–,–,–,–
C/C(=N\NC(N)=O)C(CN(C)C)C(c1ccccc1)c1c(O)c2ccccc2oc1=O (stereo not drawn),> 100,–,> 100,> 100,> 100,> 100,> 100,> 100,> 100,–,–,–,–,–,–,–,–,> 100,–,–
COc1cnc2c(c1)C(=O)c1c-2n(CCCN2CCCC2)c(=O)c2cc(Cl)ccc12,12.5,10.5 µM,11.4,–,6.8,22.6,10.3,9.48,7.94,2.47 µM,1.47,0.792,–,7.16,1.73,2.54,–,–,0.161,0.0278
O=c1cccccc1NCCCCCCCCCNc1cccccc1=O,> 100,99.8 µM,26.9,21.3,44.3,46.8,39.9,–,65,–,–,–,–,–,–,–,–,37.5,–,–
CCOC(=O)N1CCN(S(=O)(=O)c2oc(-c3ccc(Cl)cc3)nc2C#N)CC1,3.47,> 100 µM,> 100,10.5,> 100,13.8,3.3,6.46,–,1.75 µM,74.1,1.59,3.34,3.96,1.49,2.51,1.79,3.38,–,28.2
O=C(Nc1cc(Cl)c(Cl)cc1Cl)C(=O)C(C(=O)c1ccc(Cl)c(Cl)c1)C1OC(=O)c2ccccc21 (stereo not drawn),–,> 100 µM,63.9,7.89,36.6,28.6,40.3,–,39.3,–,–,–,–,–,–,–,–,32.6,–,–
CCCCCCCCCCCCC(=O)[O-].CCCCCCCCCCCCC(=O)[O-].CCCCCCCCCCCCC(=O)[O-].CCCCCCCCCCCCC(=O)[O-].[Mo+2].[Mo+2],40.2,59.9 µM,79.8,29.1,27.7,28,22.1,–,27.1,15.5 µM,15.1,10.9,13.9,12.2,10.4,–,12.4,24.9,12.6,6.28
